Measurements from patent US20260184663A1, “INDENE COMPOUNDS, PHARMACEUTICAL COMPOSITIONS THEREOF, AND THEIR THERAPEUTIC APPLICATIONS” (NucMito Pharmaceuticals co. Ltd., priority 2022, published 2026).

Legend:
Format in all cases: cell-based
[1] = system: B16F10 (malignant melanoma); experiment: Antiproliferative activity (CCK-8 cell viability), B16F10; settings: Mus musculus, 72 h, read-out: Antiproliferative activity in cancerous cells, B16F10 (inhibition of cell growth); for inhibition at 3.3 µM: B16-F10, Compound concentration: 3.3 μM; for inhibition at 10 µM: B16-F10, Compound concentration: 10 μM; for inhibition at 30 µM: B16-F10, Compound concentration: 30 μM
Outline: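 Attached B16F10 cells in 96-well plates were incubated with compound at 37° C for 72 h, followed by 10 μL CCK-8 reagent per well and a further 4 h incubation. A multi-well plate reader measured absorbance at 450 nm. Percent viability across replicates was calculated against DMSO vehicle-treated cells.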

[2] = system: alpha-smooth muscle actin (α-SMA); experiment: Inhibition of TGF-β induced expression of alpha-smooth muscle actin (α-SMA) in CFSC cells (western blot); settings: compound at 10 μM, TGF-β (10 ng/mL), 24 hours, band intensity vs TGF-β only
Outline: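 Values are percent reduction of α-SMA band intensity relative to cells given TGF-β alone, quantified by Western blot densitometry with β-actin probed. Compound was applied at 10 μM alongside 10 ng/mL TGF-β to serum-free CFSC cultures for 24 h at 37 °C.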

HeLa (cervical cancer) = experiment: Antiproliferative activity (CCK-8 cell viability), HeLa; settings: Homo sapiens, 72 h, read-out: Antiproliferative activity in cancerous cells, HELA (inhibition of cell growth); for inhibition at 3.3 µM: Compound concentration: 3.3 μM; for inhibition at 10 µM: Compound concentration: 10 μM; for inhibition at 30 µM: Compound concentration: 30 μM
Outline: (§1)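 Cells were seeded at 2,000-5,000/well (HeLa in MEM, HepG2 and SW480 in DMEM, A549 in F-12K, all with 10% FBS) and treated with compound at 3.3, 10 or 30 μM for 72 h at 37° C. CCK-8 was added for 4 h, absorbance was read at 450 nm, and viability was expressed relative to DMSO-treated wells.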

[3] = system: A431 (epidermoid carcinoma); experiment: Antiproliferative activity (CCK-8 cell viability), A431; settings: Homo sapiens, 72 h, read-out: Antiproliferative activity in cancerous cells, A431 (inhibition of cell growth); for inhibition at 3.3 µM: A-431, Compound concentration: 3.3 μM; for inhibition at 10 µM: A-431, Compound concentration: 10 μM; for inhibition at 30 µM: A-431, Compound concentration: 30 μM
Outline: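 Cell viability of compound-treated A431 cells was measured with a Cell Counting Kit-8. Each well received 10 μL of CCK-8 after 72 h of compound exposure, followed by 4 h incubation at 37° C. and a 450 nm plate-reader measurement. Percent viability was calculated relative to DMSO controls across replicates.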

SW480 (colon cancer) = experiment: Antiproliferative activity (CCK-8 cell viability), SW480; settings: Homo sapiens, 72 h, read-out: Antiproliferative activity in cancerous cells, SW480 (inhibition of cell growth); for inhibition at 3.3 µM: Compound concentration: 3.3 μM; for inhibition at 10 µM: Compound concentration: 10 μM; for inhibition at 30 µM: Compound concentration: 30 μM
Outline: as §1

[4] = system: MDA-MB-231 (breast cancer); experiment: Antiproliferative activity (CCK-8 cell viability), MDA-MB-231; settings: Homo sapiens, 72 h, read-out: Antiproliferative activity in cancerous cells, MDA-MB-231 (inhibition of cell growth); for inhibition at 3.3 µM: Compound concentration: 3.3 μM; for inhibition at 10 µM: Compound concentration: 10 μM; for inhibition at 30 µM: Compound concentration: 30 μM
Outline: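 In this CCK-8 viability assay, MDA-MB-231 cells maintained in Dulbecco's modified Eagle's medium containing 10% fetal bovine serum were placed in 96-well plates (2,000-5,000 cells/well) and treated with compound for 72 h at 37° C. A 4 h incubation with 10 μL CCK-8 followed, plates were read at 450 nm, and viability was expressed against DMSO vehicle wells across replicates.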

HepG2 (liver cancer) = experiment: Antiproliferative activity (CCK-8 cell viability), HepG2; settings: Homo sapiens, 72 h, read-out: Antiproliferative activity in cancerous cells, HepG2 (inhibition of cell growth); for inhibition at 3.3 µM: Compound concentration: 3.3 μM; for inhibition at 10 µM: Compound concentration: 10 μM; for inhibition at 30 µM: Compound concentration: 30 μM
Outline: as §1

[5] = system: A549 (lung adenocarcinoma); experiment: Antiproliferative activity (CCK-8 cell viability), A549; settings: Homo sapiens, 72 h, read-out: Antiproliferative activity in cancerous cells, A549 (inhibition of cell growth); for inhibition at 3.3 µM: Compound concentration: 3.3 μM; for inhibition at 10 µM: Compound concentration: 10 μM; for inhibition at 30 µM: Compound concentration: 30 μM
Outline: as §1

CC1=C(CC(=O)O)c2c(F)cc(F)cc2/C1=C\c1ccc(C(C)C)cc1 [D8, (Z)-2-(4,6-Difluoro-1-(4-isopropylbenzylidene)-2-methyl-1H-inden-3-yl)acetic acid]
≥ 50%: inhibition at 10 µM [1] | inhibition at 30 µM [1] | inhibition at 3.3 µM (HeLa (cervical cancer)) | inhibition at 10 µM (HeLa (cervical cancer)) | inhibition at 30 µM (HeLa (cervical cancer)) | inhibition at 30 µM [3] | inhibition at 30 µM (SW480 (colon cancer)) | inhibition at 10 µM [4] | inhibition at 30 µM [4] | inhibition at 30 µM (HepG2 (liver cancer)) | inhibition at 30 µM [5]
30 to 50%: inhibition at 3.3 µM [4] | inhibition at 10 µM [5]
< 30%: inhibition at 3.3 µM [1] | inhibition at 3.3 µM [3] | inhibition at 10 µM [3] | inhibition at 3.3 µM (SW480 (colon cancer)) | inhibition at 10 µM (SW480 (colon cancer)) | inhibition at 3.3 µM (HepG2 (liver cancer)) | inhibition at 10 µM (HepG2 (liver cancer)) | inhibition at 3.3 µM [5]
50 to 80%: inhibition at 10 µM [2]

COc1ccc(Oc2ccc(/C=C3\C(C)=C(CC(=O)O)c4cc(F)ccc43)cn2)cc1 [E1, (E)-2-(5-Fluoro-1-((6-(4-methoxyphenoxy)pyridin-3-yl)methylene)-2-methyl-1H-inden-3-yl)acetic acid]
≥ 50%: inhibition at 30 µM [4]
30 to 50%: inhibition at 30 µM [1] | inhibition at 30 µM (HeLa (cervical cancer)) | inhibition at 30 µM (SW480 (colon cancer)) | inhibition at 30 µM (HepG2 (liver cancer)) | inhibition at 10 µM [5] | inhibition at 30 µM [5]
< 30%: inhibition at 3.3 µM [1] | inhibition at 10 µM [1] | inhibition at 10 µM [2] | inhibition at 3.3 µM (HeLa (cervical cancer)) | inhibition at 10 µM (HeLa (cervical cancer)) | inhibition at 3.3 µM [3] | inhibition at 10 µM [3] | inhibition at 30 µM [3] | inhibition at 3.3 µM (SW480 (colon cancer)) | inhibition at 10 µM (SW480 (colon cancer)) | inhibition at 3.3 µM [4] | inhibition at 10 µM [4] | inhibition at 3.3 µM (HepG2 (liver cancer)) | inhibition at 10 µM (HepG2 (liver cancer)) | inhibition at 3.3 µM [5]

CC1=C(CC(=O)O)c2cc(F)cc(F)c2/C1=C/c1ccc(COc2ccccc2)cc1 [E2, (E)-2-(5,7-Difluoro-2-methyl-1-(4-(phenoxymethyl)benzylidene)-1H-inden-3-yl)-acetic acid]
30 to 50%: inhibition at 3.3 µM [3] | inhibition at 3.3 µM (HepG2 (liver cancer)) | inhibition at 10 µM [5]
≥ 50%: inhibition at 3.3 µM [1] | inhibition at 10 µM [1] | inhibition at 30 µM [1] | inhibition at 3.3 µM (HeLa (cervical cancer)) | inhibition at 10 µM (HeLa (cervical cancer)) | inhibition at 30 µM (HeLa (cervical cancer)) | inhibition at 10 µM [3] | inhibition at 30 µM [3] | inhibition at 3.3 µM (SW480 (colon cancer)) | inhibition at 10 µM (SW480 (colon cancer)) | inhibition at 30 µM (SW480 (colon cancer)) | inhibition at 10 µM [4] | inhibition at 30 µM [4] | inhibition at 10 µM (HepG2 (liver cancer)) | inhibition at 30 µM (HepG2 (liver cancer)) | inhibition at 30 µM [5]
50 to 80%: inhibition at 10 µM [2]
< 30%: inhibition at 3.3 µM [4] | inhibition at 3.3 µM [5]

CC1=C(CC(=O)O)c2ccc(F)c(F)c2/C1=C/c1ccc(Oc2ccc(F)cc2)cc1 [E3, (E)-2-(6,7-Difluoro-1-(4-(4-fluorophenoxy)benzylidene)-2-methyl-1H-inden-3-yl)acetic acid]
≥ 50%: inhibition at 10 µM [1] | inhibition at 30 µM [1] | inhibition at 3.3 µM (HeLa (cervical cancer)) | inhibition at 10 µM (HeLa (cervical cancer)) | inhibition at 30 µM (HeLa (cervical cancer)) | inhibition at 3.3 µM [3] | inhibition at 10 µM [3] | inhibition at 30 µM [3] | inhibition at 10 µM (SW480 (colon cancer)) | inhibition at 30 µM (SW480 (colon cancer)) | inhibition at 3.3 µM [4] | inhibition at 10 µM [4] | inhibition at 30 µM [4] | inhibition at 3.3 µM (HepG2 (liver cancer)) | inhibition at 10 µM (HepG2 (liver cancer)) | inhibition at 30 µM (HepG2 (liver cancer)) | inhibition at 10 µM [5] | inhibition at 30 µM [5]
30 to 50%: inhibition at 3.3 µM [1] | inhibition at 3.3 µM (SW480 (colon cancer)) | inhibition at 3.3 µM [5]
> 80%: inhibition at 10 µM [2]

CC1=C(CC(=O)O)c2ccc(F)c(F)c2/C1=C/c1cccc(Oc2ccccc2)c1 [E4, (E)-2-(6,7-Difluoro-2-methyl-1-(3-phenoxybenzylidene)-1H-inden-3-yl)acetic acid]
> 80%: inhibition at 10 µM [2]
≥ 50%: inhibition at 10 µM [1] | inhibition at 30 µM [1] | inhibition at 10 µM (HeLa (cervical cancer)) | inhibition at 30 µM (HeLa (cervical cancer)) | inhibition at 30 µM [3] | inhibition at 30 µM (SW480 (colon cancer)) | inhibition at 30 µM [4] | inhibition at 30 µM (HepG2 (liver cancer)) | inhibition at 10 µM [5] | inhibition at 30 µM [5]
30 to 50%: inhibition at 3.3 µM (HeLa (cervical cancer)) | inhibition at 10 µM [4] | inhibition at 10 µM (HepG2 (liver cancer))
< 30%: inhibition at 3.3 µM [1] | inhibition at 3.3 µM [3] | inhibition at 10 µM [3] | inhibition at 3.3 µM (SW480 (colon cancer)) | inhibition at 10 µM (SW480 (colon cancer)) | inhibition at 3.3 µM [4] | inhibition at 3.3 µM (HepG2 (liver cancer)) | inhibition at 3.3 µM [5]

CC1=C(CC(=O)O)c2cc(F)ccc2/C1=C/c1ccc(F)cc1OCc1ccccc1 [E5, (E)-2-(1-(2-(Benzyloxy)-4-fluorobenzylidene)-5-fluoro-2-methyl-1H-inden-3-yl)-acetic acid]
< 30%: inhibition at 3.3 µM (HeLa (cervical cancer)) | inhibition at 3.3 µM [3] | inhibition at 3.3 µM [5]
30 to 50%: inhibition at 10 µM [3] | inhibition at 3.3 µM (SW480 (colon cancer)) | inhibition at 10 µM (SW480 (colon cancer)) | inhibition at 3.3 µM [4] | inhibition at 10 µM [4] | inhibition at 3.3 µM (HepG2 (liver cancer))
≥ 50%: inhibition at 3.3 µM [1] | inhibition at 10 µM [1] | inhibition at 30 µM [1] | inhibition at 10 µM (HeLa (cervical cancer)) | inhibition at 30 µM (HeLa (cervical cancer)) | inhibition at 30 µM [3] | inhibition at 30 µM (SW480 (colon cancer)) | inhibition at 30 µM [4] | inhibition at 10 µM (HepG2 (liver cancer)) | inhibition at 30 µM (HepG2 (liver cancer)) | inhibition at 10 µM [5] | inhibition at 30 µM [5]
> 80%: inhibition at 10 µM [2]

CC1=C(CC(=O)O)c2cc(F)ccc2/C1=C/c1cccc(COc2ccc(F)cc2F)c1 [E6, (E)-2-(1-(3-((2,4-Difluorophenoxy)methyl)benzylidene)-5-fluoro-2-methyl-1H-inden-3-yl)acetic acid]
30 to 50%: inhibition at 10 µM [1] | inhibition at 10 µM [3] | inhibition at 10 µM (SW480 (colon cancer)) | inhibition at 3.3 µM [4] | inhibition at 10 µM [4]
> 80%: inhibition at 10 µM [2]
≥ 50%: inhibition at 30 µM [1] | inhibition at 30 µM (HeLa (cervical cancer)) | inhibition at 30 µM [3] | inhibition at 30 µM (SW480 (colon cancer)) | inhibition at 30 µM [4] | inhibition at 30 µM (HepG2 (liver cancer)) | inhibition at 30 µM [5]
< 30%: inhibition at 3.3 µM [1] | inhibition at 3.3 µM (HeLa (cervical cancer)) | inhibition at 10 µM (HeLa (cervical cancer)) | inhibition at 3.3 µM [3] | inhibition at 3.3 µM (SW480 (colon cancer)) | inhibition at 3.3 µM (HepG2 (liver cancer)) | inhibition at 10 µM (HepG2 (liver cancer)) | inhibition at 3.3 µM [5] | inhibition at 10 µM [5]
